Measured values: US20250186456A1, “PYRIMIDINE-FUSED CYCLIC COMPOUND AND PREPARATION METHOD AND USE THEREOF” (Genfleet Therapeutics (Shanghai) Inc., priority 2021, published 2025)
pIC50: −log10 of the molar value. Read-outs that look alike come from different tables or passages of the source.

Key:
Assay type in all cases: cell-based, human
[1] = tested on: AsPC-1 cells (KRAS G12D mutation); test: Cell proliferation inhibition assay, 3D, CellTiter-Glo 3D, AsPC-1; details: AsPC-1 3D sphere model, 5 days incubation
How it was run: (§1)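 Spheroids (800 AsPC-1 or 400 AGS cells/well; RPMI-1640 or F-12K with 10% FBS) formed overnight, then were dosed on day 2 with a 3.16-fold series at 0.1% DMSO. After 5 days, viability was read by CellTiter-Glo 3D luminescence, and IC50 came from four-parameter fits of inhibition versus DMSO control and medium blank.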

[2] = tested on: p-ERK in AGS cells (KRAS G12D mutation); test: Cell p-ERK assay (HTRF, Advance ERK phospho-T202/Y204 kit); details: AGS cells, 3 hours incubation with compound, HTRF, read-out: AGS p-ERK IC50
How it was run: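 AGS cells (endogenous KRAS G12D) seeded at ~20000 cells/well overnight, then treated 3 h with 3.16-fold compound dilutions, 0.1% DMSO final. Lysates assayed for phospho-T202/Y204 ERK by HTRF after 4 h antibody incubation; inhibition vs DMSO and blank, IC50 by four-parameter fit.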

AGS cells (KRAS G12D) = test: Cell proliferation inhibition assay, 3D, CellTiter-Glo 3D, AGS; details: AGS 3D sphere model, 5 days incubation
How it was run: as §1

Row | pIC50 [1] | pIC50 [2] | pIC50 (AGS cells (KRAS G12D)) | Structure (SMILES) | pIC50 ([1]; Homo sapiens, ASPC1, 120 h) | pIC50 ([2]; Homo sapiens) | pIC50 (AGS cells (KRAS G12D); Homo sapiens, 120 h)
1 | – | – | – | C[C@@H]1Oc2nc(-c3cc(N)cc4ccc(F)c(F)c34)c(F)c3nc(OCC45CCCN4CC(F)(F)C5)nc(c23)N2C[C@H]3CC[C@H](N3)[C@@H]12 (stereo partly drawn) [Example Z720, 4-((5S,5aS,6S,9R)-12-((2,2-difluorotetrahydro-1H-pyrrolizin-7a (5H)-yl)methoxy)-1-fluoro-5-methyl-5a,6,7,8,9,10-hexahydro-5H-4-oxa-3,10a, 11,13,14-pentaaza-6,9-methanonaphtho[1,8-ab]heptalene-2-yl)-5,6-difluoronaphthalen-2-amine] | 7.48 | 7.45 | 7.80
2 | 6.98 | 7.43 | 7.36 | C#Cc1c(F)ccc2cccc(-c3nc4c5c(nc(OCC6(CN7CCC(O)C7)CC6)nc5c3F)N3C[C@H]5CC[C@H](N5)[C@H]3[C@H](C)O4)c12 (stereo partly drawn) [Example Z721] | – | – | –
3 | – | – | – | C#Cc1c(F)ccc2cc(N)cc(-c3nc4c5c(nc(OCC67CCCN6CC(F)(F)C7)nc5c3F)N3C[C@H]5CC[C@H](N5)[C@H]3[C@H](C)O4)c12 (stereo partly drawn) [Example Z722, 4-((5S,5aS,6S,9R)-12-((2,2-difluorotetrahydro-1H-pyrrolizin-7a (5H)-yl)methoxy)-1-fluoro-5-methyl-5a,6,7,8,9,10-hexahydro-5H-4-oxa-3,10a, 11,13,14-pentaaza-6,9-methanonaphtho[1,8-ab]heptalene-2-yl)-5-ethynyl-6-fluoronaphthalen-2-amine] | 8.03 | 8.14 | 7.89
4 | – | – | – | C#Cc1c(F)ccc2cc(O)cc(-c3nc4c5c(nc(OCC67CCCN6CC(F)(F)C7)nc5c3F)N3C[C@H]5CC[C@H](N5)[C@H]3[C@H](C)O4)c12 (stereo partly drawn) [Example Z723, 4-((5S,5aS,6S,9R)-12-((2,2-difluorotetrahydro-1H-pyrrolizin-7a (5H)-yl)methoxy)-1-fluoro-5-methyl-5a,6,7,8,9,10-hexahydro-5H-4-oxa-3,10a, 11,13,14-pentaaza-6,9-methanonaphtho[1,8-ab]heptalene-2-yl)-5-ethynyl-6-fluoronaphthalen-2-ol] | 7.26 | 8.16 | 7.82
5 | – | – | – | C#Cc1cccc2cc(N)cc(-c3nc4c5c(nc(OC[C@@H]6CC(F)(F)CN6C)nc5c3F)N3C[C@H]5CC[C@H](N5)[C@H]3[C@H](C)O4)c12 [Example Z724, 4-((5S,5aS,6S,9R)-12-(((S)-4,4-Difluoro-1-Methylpyrrolidin-2-Yl)Methoxy)-1-Fluoro-5-Methyl-5a,6,7,8,9,10-Hexahydro-5H-4-Oxa-3,10a,11,13,14-Pentaaza-6,9-Methanonaphtho[1,8-Ab]Heptalene-2-Yl)-5-Ethynylnaphthalen-2-Amine] | 6.71 | 7.34 | 7.04
6 | – | – | – | C#Cc1cccc2c(F)c(N)cc(-c3nc4c5c(nc(OCC67CCCN6CC(F)(F)C7)nc5c3F)N3C[C@H]5CC[C@H](N5)[C@H]3[C@H](C)O4)c12 (stereo partly drawn) [Example Z725, 4-((5S,5aS,6S,9R)-12-((2,2-difluorotetrahydro-1H-pyrrolizin-7a (5H)-yl)methoxy)-1-fluoro-5-methyl-5a,6,7,8,9,10-hexahydro-5H-4-oxa-3,10a,11,13,14-pentaaza-6,9-methanonaphtho[1,8-ab]heptalen-2-yl)-5-ethynyl-1-fluoronaphthalen-2-amine] | 6.98 | 7.37 | 7.20
7 | – | – | – | C#Cc1cccc2nc(N)cc(-c3nc4c5c(nc(OCC67CCCN6CC(F)(F)C7)nc5c3F)N3C[C@H]5CC[C@H](N5)[C@H]3[C@H](C)O4)c12 (stereo partly drawn) [Example Z726, 4-((5S,5aS,6S,9R)-12-((2,2-difluorotetrahydro-1H-pyrrolizin-7a (5H)-yl)methoxy)-1-fluoro-5-methyl-5a,6,7,8,9,10-hexahydro-5H-4-oxa-3,10a, 11,13,14-pentaaza-6,9-methanonaphtho[1,8-ab]heptalene-2-yl)-5-ethynylquinolin-2-amine] | 6.20 | 7.10 | 6.87
8 | – | – | – | C#Cc1cccc2c(F)c(N)cc(-c3nc4c5c(nc(OCC67CC(=C)CN6CC(=C)C7)nc5c3F)N3C[C@H]5CC[C@H](N5)[C@H]3[C@H](C)O4)c12 [Example Z727, 4-((5S,5aS,6S,9R)-12-((2,6-dimethylenetetrahydro-1H-pyrrolizin-7a (5H)-yl)methoxy)-1-fluoro-5-methyl-5a,6,7,8,9,10-hexahydro-5H-4-oxa-3,10a, 11,13,14-pentaaza-6,9-methanonaphtho[1,8-ab]heptalene-2-yl)-5-ethynyl-1-fluoronaphthalen-2-amine] | 7.91 | 8.30 | 8.03
9 | – | – | – | C#Cc1cccc2c(F)c(N)cc(-c3nc4c5c(nc(OCC67C[C@@H](F)CN6CCC7=C)nc5c3F)N3C[C@H]5CC[C@H](N5)[C@H]3[C@H](C)O4)c12 (stereo partly drawn) [Example Z728, 5-ethynyl-1-fluoro-4-((5S,5aS,6S,9R)-1-fluoro-12-(((6R)-6-fluoro-1-methylenetetrahydro-1H-pyrrolizin-7a (5H)-yl)methoxy)-5-methyl-5a,6,7,8,9,10-hexahydro-5H-4-oxa-3,10a, 11, 13,14-pentaaza-6,9-methanonaphtho[1,8-ab]heptalene-2-yl) naphthalen-2-amine] | 8.27 | 9.02 | 8.43
10 | – | – | – | CCc1cccc2c(F)c(N)cc(-c3nc4c5c(nc(OCC67CCCN6CC(F)(F)C7)nc5c3F)N3C[C@H]5CC[C@H](N5)[C@H]3[C@H](C)O4)c12 (stereo partly drawn) [Example Z729, 4-((5S,5aS,6S,9R)-12-((2,2-difluorotetrahydro-1H-pyrrolizin-7a (5H)-yl)methoxy)-1-fluoro-5-methyl-5a,6,7,8,9,10-hexahydro-5H-4-oxa-3,10a, 11, 13, 14-pentaaza-6,9-methanonaphtho[1,8-ab]heptalene-2-yl)-5-ethyl-1-fluoronaphthalen-2-amine] | 6.12 | 6.67 | 6.23
11 | 8.44 | 9.27 | 8.78 | C#Cc1cccc2cc(N)cc(-c3nc4c5c(nc(OCC67C[C@@H](F)CN6CCC7=C)nc5c3F)N3C[C@H]5CC[C@H](N5)[C@H]3[C@H](C)O4)c12 (stereo partly drawn) [Example Z730, 5-ethynyl-4-((5S,5aS,6S,9R)-1-fluoro-12-(((6R)-6-fluoro-1-methylenetetrahydro-1H-pyrrolizin-7a (5H)-yl)methoxy)-S-methyl-5a,6,7,8,9,10-hexahydro-5H-4-oxa-3,10a, 11, 13, 14-pentaaza-6,9-methanonaphtho[1,8-ab]heptalene-2-yl) naphthalen-2-amine] | – | – | –
12 | – | – | – | C=C1CCN2C[C@H](F)CC12COc1nc2c3c(nc(-c4cc(N)c(F)c5ccc(F)c(F)c45)c(F)c3n1)O[C@@H](C)[C@@H]1[C@@H]3CC[C@H](CN21)N3 (stereo partly drawn) [Example Z731, 1,5,6-trifluoro-4-((5S, 5aS,6S,9R)-1-fluoro-12-(((6R)-6-fluoro-1-methylenetetrahydro-1H-pyrrolizin-7a (5H)-yl)methoxy)-5-methyl-5a,6,7,8,9,10-hexahydro-5H-4-oxa-3,10a, 11,13,14-pentaaza-6,9-methanonaphtho[1,8-ab]heptalene-2-yl) naphthalen-2-amine] | 7.80 | 8.80 | 8.24
